Assay results: the PolyMetriX glass transition set

SMILES	glass transition temperature [°C]
*/C=C(/*)C(CCCCCCC)[Si](C)(C)C (repeat unit)	150.00
*C(=O)NC1CCC(CC2CCC(NC(=O)c3ccc(N4C(=O)c5ccc(*)cc5C4=O)cc3)CC2)CC1 (repeat unit)	275.00
*C(=O)Nc1ccc(C)cc1N1C(=O)CC(N2C(=O)c3ccc(*)cc3C2=O)C1=O (repeat unit)	237.00
*C(=O)Nc1ccc(NC(=O)c2ccc3c(c2)C(=O)N(c2ccc(Oc4ccc(N5C(=O)c6ccc(*)cc6C5=O)cc4)cc2)C3=O)c(OCCCCCCS(=O)(=O)c2ccc(/C=C/c3ccc(N(C)C)cc3)cc2)c1 (repeat unit)	192.00
*CC(F)(F)C(F)(F)C(F)(F)COC(=O)NCC(F)(F)C(F)(F)C(F)(F)C(F)(F)CNC(=O)O* (repeat unit)	25.00
*CCCCCCCCCNC(=S)N* (repeat unit)	48.00
*CCCCCCOC(=O)NCC(F)(F)C(F)(F)C(F)(F)C(F)(F)CNC(=O)O* (repeat unit)	5.00
*CCCCOC(=O)NCC(F)(F)C(F)(F)C(F)(F)C(F)(F)CNC(=O)O* (repeat unit)	33.00
*NC(C)(CC)C(*)=O (repeat unit)	74.2
*NC(CCC(=O)OCCC)C(*)=O (repeat unit)	-10.00
*NC(CCC(=O)OCCCC)C(*)=O (repeat unit)	-15.00
*Nc1cc(NC(=O)c2cccc(C(*)=O)c2)cc(C(=O)Oc2ccc(Oc3ccc(C#N)c(C#N)c3)cc2)c1 (repeat unit)	305.00
*Oc1cc(C(C)(C)C)c(Oc2ccc(C(=O)Nc3c(C)cc(Cc4cc(C)c(NC(=O)c5ccc(*)cc5)c(C(C)C)c4)cc3C(C)C)cc2)cc1C(C)(C)C (repeat unit)	260.00
*Oc1ccc(C(*)=O)cc1CCCCC (repeat unit)	50.00
*Oc1cccc(OC(=O)c2cc(OCCCCC)cc(C(*)=O)c2)c1 (repeat unit)	96.00
*Oc1ccccc1C(=O)OC(=O)c1ccccc1OC(=O)C(CC)C(CC)C(*)=O (repeat unit)	23.00

Next, values leading:

glass transition temperature [°C]	SMILES
40.00	*CCCCCCCCCCCCCCNC(=O)NCCCCCCCCCCNC(=O)N* (repeat unit)
54.00	*CCCCCCCCCCCCCCNC(=O)NCc1ccc(CNC(=O)N*)cc1 (repeat unit)
130.00	*CCCCCCCCCCCCNC(=O)c1ccc(C(=O)N*)cc1 (repeat unit)
55.00	*CCCCCCCCCCNC(=O)NCc1ccc(CNC(=O)N*)cc1 (repeat unit)
44.00	*CCOC(=O)NCCCCCCCCCNC(=O)O* (repeat unit)
132.00	*NC(CCC(=O)Nc1ccc(N(c2ccccc2)c2ccccc2)cc1)C(*)=O (repeat unit)
-62.00	*NC(CCC(=O)OCCCCCCCCCC)C(*)=O (repeat unit)
51.00	*Nc1ccc(Cc2ccc(NC(=O)NCCCCCCCCCCCCNC(*)=O)cc2)cc1 (repeat unit)
305.00	*Nc1ccc(NC(=O)c2ccc(NC(=O)CCCCCCC(=O)Nc3ccc(C(*)=O)cc3)cc2)cc1C(=O)OCCCCCCCCCCCCCCCCCC (repeat unit)
204.50	*Nc1ccc(NC(=O)c2ccc(NC(=O)CCCCCCCCCCCCC(=O)Nc3ccc(C(*)=O)cc3)cc2)cc1C(=O)OCCCCCCCCCCCCCC (repeat unit)
191.00	*Nc1ccc(NC(=O)c2ccc(NC(=O)CCCCCCCCCCCCC(=O)Nc3ccc(C(*)=O)cc3)cc2)cc1C(=O)OCCCCCCCCCCCCCCCCCC (repeat unit)
270.00	*Nc1cccc(NC(=O)c2cccc(C(=O)Nc3ccc(C(=O)NC(*)=S)cc3)c2)c1 (repeat unit)
170.00	*Oc1ccc(S(=O)(=O)c2ccc(OC(=O)c3cc(CCCCC)cc(C(*)=O)c3)cc2)cc1 (repeat unit)
